Experimental data taken from patent publication US20220295782A1, “METHOD FOR PRODUCING FROZEN BODY OF THREE-DIMENSIONAL TISSUE AGGREGATE OF RETINAL PIGMENT EPITHELIAL CELLS” (NICHIREI BIOSCIENCE INC., priority 2019, published 2022).
Like-named read-outs stand apart in the source and are kept apart here.

Test system: RPE cells
Description: RPE cells (manufactured by Lonza K.K., 00194987) were seeded on a 96-well plate (Falcon, 353072) at 3.3×10^4 cells/well, and cultured in a maintenance medium (350 mL of DMEM (Sigma, D6046), 150 mL of F12 HAM (Sigma, N6658), 10 mL of B27 (Invitrogen, 17504-044), 5 mL of 200 mM L-glutamine (Sigma, G7513), 10 ng/mL of bFGF (Wako, 060-04543), […] of SB431542 hydrate (Sigma, S4317)) until the cells reached confluent. The cultured cells were washed with PBS(−) at room temperature, and then exposed to a pretreatment solution for 10 minutes or 30 minutes.
As the pretreatment solutions, solutions having EG concentrations of 10 (v/v) %, 12.5 (v/v) %, 15 (v/v) %, 17.5 (v/v) % and 20 (v/v) % were used. As the solvent of the pretreatment solution, a Dulbecco's modified Eagle's medium (DMEM) supplemented with 2 mM L-glutamine or PBS(−) was used.

Structure (SMILES): OCCO [EG, ethylene glycol]
- initial toxicity (metabolic activity of cells, MTS assay) (0 hours of culture time, EG 10-20 (v/v) % in DMEM supplemented with 2 mM L-glutamine, exposure 10 minutes): increased in a concentration-dependent manner from the EG concentration of 12.5 (v/v) %
- time to recovery of metabolic activity (30-minute exposure versus 10-minute exposure): longer time to recovery is required
- cytotoxicity (MTS assay) (30 minutes of exposure time to the pretreatment solution): same tendency of cytotoxicity as in the results of FIG. 1
- cytotoxicity (MTS assay) (PBS(-) used as the solvent): the same tendency as when the DMEM medium supplemented with glutamine was used
- culture time in which recovery of metabolic activity is possible (up to EG concentration of 17.5 (v/v) %, DMEM with glutamine, exposure 10 minutes): about 24 hours
